In patent US12527774B2, “Estrogen-related receptor alpha modulators” (LEAD PHARMA HOLDING B.V., priority 2019, dated 2026):

Target: ERRα ligand binding domain (ERRα-LBD) (Homo sapiens (Human), UniProt P11474)
Assay: ERRα AlphaScreen Assay
Assay type: biochemical
Conditions: disruption of binding of ERRα-LBD protein to biotin-PGC1α-3 co-activator peptide; for IC50: read-out: mean pIC50 (converted)
Text: This assay was based on the knowledge that nuclear receptors interact with cofactors in a ligand dependent matter. The sites of interaction have been mapped to LXXLL motifs that are present in the co-activator sequences. Short peptide sequences that contain the LXXLL motif mimic the behavior of full length co-activators.
The ERRα AlphaScreen Assay described here relies on the interaction of the co-activator peptide with purified bacterial-expressed ERRα ligand binding domain (ERRα-LBD); upon ligand binding the ERRα protein can undergo a conformational change resulting in a loss of co-activator binding.
Compounds of the present invention were tested for their ability to disrupt binding of ERRα-LBD protein to co-activator peptide using AlphaScreen® Technology (Perkin Elmer). ERRα-LBD protein was expressed in E. coli as a 6×His Small Ubiquitin-like Modifier (SUMO) fusion. Bacterial expressed 6His-SUMO-ERRα-LBD protein was purified using affinity chromatography. All experiments were performed at room temperature in 384-well white non-binding plates (Greiner) using 50 mM Tris-HCl pH 7.5, 100 mM NaCl, 0,1% Pluronic F-127, 0.05% BSA and 5 mM TCEP as the buffer. Final DMSO concentration was 1% in the assay. Compounds were assayed in triplicate and: incubated with 0.81 nM ERRα-LBD protein and 10 μg/mL streptavidin donor beads and 10 μg/mL Ni-chelate acceptor beads for 1 hour at room temperature; followed by a 2-hour incubation with 15 nM biotin-PGC1α-3 peptide (QRRPCSELLKYLTTNDDPP) corresponding to amino acids 202 to 220.
The AlphaScreen signal was measured using an Envision Xcite plate reader (Perkin Elmer). Data was normalized, and curve fitting analysis was performed in GraphPad Prism 7 using a four-parameter dose-response fit.
As multiple IC50 values were annotated for the same compound-protein pair, a mean pIC50 for each compound was determined.

Chain of ERRα ligand binding domain (ERRα-LBD) (P11474 193-421): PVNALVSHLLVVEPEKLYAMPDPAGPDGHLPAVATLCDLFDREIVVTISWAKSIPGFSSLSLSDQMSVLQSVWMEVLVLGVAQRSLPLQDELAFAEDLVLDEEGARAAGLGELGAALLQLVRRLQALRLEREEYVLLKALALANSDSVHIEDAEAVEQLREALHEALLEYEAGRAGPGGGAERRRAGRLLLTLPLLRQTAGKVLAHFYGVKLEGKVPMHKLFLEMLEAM

Row | Compound | IC50 [µM] | mean pIC50
1 | COC(=O)Cc1ccc(COc2ccc(C3CC(=O)Nc4n[nH]cc43)cc2OC)c(C(F)(F)F)c1 (stereo not shown) [Example 148, methyl 2-[4-(2-methoxy-4-{6-oxo-2H,4H,5H,6H,7H-pyrazolo[3,4-b]pyridin-4-yl}phenoxymethyl)-3-(trifluoromethyl)phenyl]acetate] | 0.1 to 1 | 
2 | COc1cc(C2CC(=O)Nc3n[nH]cc32)ccc1OCc1ccccc1OC(F)F (stereo not shown) [Example 17, 4-(4-{[2-(difluoromethoxy)phenyl]methoxy}-3-methoxyphenyl)-2H,4H,5H,6H,7H-pyrazolo[3,4-b]pyridin-6-one] | 0.01 to 0.1 | 
3 | O=C1CC(c2ccc(OCc3ccccc3C(F)(F)F)c(C(=O)OCCO)c2)c2c[nH]nc2N1 (stereo not shown) [Example 132, 2-hydroxyethyl 5-{6-oxo-2H,4H,5H,6H, 7H-pyrazolo[3,4-b]pyridin-4-yl}-2-{[2-(trifluoromethyl)phenyl]methoxy}benzoate] | 0.1 to 1 | 
4 | COc1cc(C2CC(=O)Nc3n[nH]cc32)ccc1OCc1cccc(C(F)(F)F)c1F (stereo not shown) [Example 28, 4-(4-{[2-fluoro-3-(trifluoromethyl)phenyl]methoxy}-3-methoxyphenyl)-2H,4H,5H,6H,7H-pyrazolo[3,4-b]pyridin-6-one] | 0.1 to 1 | 
5 | COc1cc(C2CC(=O)Nc3n[nH]cc32)ccc1OCc1ccc(C#N)cc1C(F)(F)F (stereo not shown) [Example 105, 4-[(2-methoxy-4-{6-oxo-2H,4H,55H, 6H, 7H-pyrazolo[3,4-b]pyridin-4-yl}phenyl)methoxy]-3-(trifluoromethyl)benzonitrile] | 0.01 to 0.1 | 
6 | COc1cc(C2CC(=O)Nc3n[nH]cc32)ccc1COc1ccc(C)cc1C (single isomer, unassigned; (-)) [Example 220, (−)-4-{4-[(2,4-dimethylphenoxy)methyl]-3-methoxyphenyl}-2H,4H,5H,6H,7H-pyrazolo[3,4-b]pyridin-6-one] |  | ≥ 8
7 | CNc1ccc(COc2ccc(C3CC(=O)Nc4n[nH]cc43)cc2OC)c(C(F)(F)F)c1 (stereo not shown) [Example 141, 4-(3-methoxy-4-{[4-(methylamino)-2-(trifluoromethyl)phenyl]methoxy}phenyl)-2H,4H,5H,6H,7H-pyrazolo[3,4-b]pyridin-6-one] |  | ≥ 8
8 | COc1cc(C2CC(=O)Nc3n[nH]cc32)ccc1OCc1ccccc1[N+](=O)[O-] (stereo not shown) [Example 18, 4-{3-methoxy-4-[(2-nitrophenyl)methoxy]phenyl}-2H,4H,5H,6H, 7H-pyrazolo[3,4-b]pyridin-6-one] | 0.1 to 1 | 
9 | COc1cc(C2CC(=O)Nc3n[nH]cc32)ccc1OCc1ccc(N)cc1C(F)(F)F (single isomer, unassigned; (+)) [Example 203, (+)-4-(4-{[4-amino-2-(trifluoromethyl)phenyl]methoxy}-3-methoxyphenyl)-2H,4H,5H,6H,7H-pyrazolo[3,4-b]pyridin-6-one] | 0.01 to 0.1 | 
10 | COc1ccc(C(F)(F)F)c(COc2ccc(C3CC(=O)Nc4n[nH]cc43)cc2OC)c1 (stereo not shown) [Example 35, 4-(3-methoxy-4-{[5-methoxy-2-(trifluoromethyl)phenyl]methoxy}phenyl)-2H,4H,5H,6H,7H-pyrazolo[3,4-b]pyridin-6-one] | 0.01 to 0.1 | 
11 | COc1cc(C2CC(=O)N(C)c3n[nH]cc32)ccc1OCc1ccccc1C(F)(F)F (stereo not shown) [Example 86, 4-(3-methoxy-4-{[2-(trifluoromethyl)phenyl]methoxy}phenyl)-7-methyl-2H,4H,5H,6H,7H-pyrazolo[3,4-b]pyridin-6-one] | 0.1 to 1 | 
12 | COc1cc(C2CC(=O)Nc3[nH]nnc32)ccc1OCc1ccccc1C(F)(F)F (stereo not shown) [Example 90, 7-(3-methoxy-4-{[2-(trifluoromethyl)phenyl]methoxy}phenyl)-3H,4H,5H,6H, 7H-[1,2,3]triazolo[4,5-b]pyridin-5-one] |  | ≥ 8
13 | COc1cc(C2CC(=O)Nc3n[nH]cc32)ccc1OCc1cc(Cl)cc(Cl)c1Cl (stereo not shown) [Example 31, 4-{3-methoxy-4-[(2,3,5-trichlorophenyl)methoxy]phenyl}-2H,4H,5H,6H,7H-pyrazolo[3,4-b]pyridin-6-one] | 0.1 to 1 | 
14 | COc1cc(-c2cc(=O)[nH]c3n[nH]cc23)ccc1OCc1ccccc1 [Example 183, 4-[4-(benzyloxy)-3-methoxyphenyl]-2H,6H, 7H-pyrazolo[3,4-b]pyridin-6-one] | 0.1 to 1 | 
15 | COc1cc(C2CC(=O)Nc3n[nH]cc32)ccc1OCc1cccc(OCCO)c1C(F)(F)F (stereo not shown) [Example 160, 4-(4-{[3-(2-hydroxyethoxy)-2-(trifluoromethyl)phenyl]methoxy}-3-methoxyphenyl)-2H,4H,5H,6H,7H-pyrazolo[3,4-b]pyridin-6-one] | 0.1 to 1 | 
16 | COc1ccc(COc2ccc(C3CC(=O)Nc4c[nH]nc43)cc2OC)c(C(F)(F)F)c1 (stereo not shown) [Example 92, 7-(3-methoxy-4-{[4-methoxy-2-(trifluoromethyl)phenyl]methoxy}phenyl)-2H,4H,5H,6H,7H-pyrazolo[4,3-b]pyridin-5-one] | 0.01 to 0.1 | 

Row | Compound | IC50 [µM] | mean pIC50
17 | COc1cc(C2CC(=O)Nc3n[nH]cc32)ccc1OCc1ccncc1C(F)(F)F (stereo not shown) [Example 50, 4-(3-methoxy-4-{[3-(trifluoromethyl)pyridin-4-yl]methoxy}phenyl)-2H,4H,5H,6H,7H-pyrazolo[3,4-b]pyridin-6-one] | 0.1 to 1 | 
18 | COc1cc(C2CC(=O)Nc3n[nH]c(C)c32)ccc1OCc1ccccc1C(F)(F)F (stereo not shown) [Example 82, 4-(3-methoxy-4-{[2-(trifluoromethyl)phenyl]methoxy}phenyl)-3-methyl-2H,4H,5H,6H,7H-pyrazolo[3,4-b]pyridin-6-one] | 0.1 to 1 | 
19 | COc1cc(C2CC(=O)Nc3n[nH]cc32)ccc1OCc1ccc(C(=O)O)cc1C(F)(F)F (stereo not shown) [Example 120, 4-(2-methoxy-4-{6-oxo-2H,4H,5H,6H, 7H-pyrazolo[3,4-b]pyridin-4-yl}phenoxymethyl)-3-(trifluoromethyl)benzoic acid] | 0.1 to 1 | 
20 | COc1cc(C2CC(=O)Nc3n[nH]cc32)ccc1OCc1cc2c(cc1Br)OCO2 (stereo not shown) [Example 43, 4-{4-[(6-bromo-2H-1,3-benzodioxol-5-yl)methoxy]-3-methoxyphenyl}-2H,4H,5H,6H, 7H-pyrazolo[3,4-b]pyridin-6-one] | 0.01 to 0.1 | 
21 | O=C1CC(c2ccc(OCc3ccccc3C(F)(F)F)cc2)c2c[nH]nc2N1 (stereo not shown) [Example 59, 4-(4-{[2-(trifluoromethyl)phenyl]methoxy}phenyl)-2H,4H,5H,6H,7H-pyrazolo[3,4-b]pyridin-6-one] | 0.01 to 0.1 | 
22 | COc1cc(C2CC(=O)Nc3n[nH]cc32)ccc1OCc1ccccc1Cl (stereo not shown) [Example 2, 4-{4-[(2-chlorophenyl)methoxy]-3-methoxyphenyl}-2H,4H,5H,6H,7H-pyrazolo[3,4-b]pyridin-6-one] | 0.01 to 0.1 | 
23 | COc1cc(C2CC(=O)Nc3n[nH]cc32)ccc1OCc1cccc(Br)c1 (stereo not shown) [Example 11, 4-{4-[(3-bromophenyl)methoxy]-3-methoxyphenyl}-2H,4H,5H,6H, 7H-pyrazolo[3,4-b]pyridin-6-one] | 0.1 to 1 | 
24 | COc1cc(C2CC(=O)Nc3ccsc32)ccc1OCc1ccccc1Cl (stereo not shown) [Example 79, 7-{4-[(2-chlorophenyl)methoxy]-3-methoxyphenyl}-4H,5H,6H, 7H-thieno[3,2-b]pyridin-5-one] | 0.1 to 1 | 
25 | COC(=O)c1ccc(COc2ccc(C3CC(=O)Nc4n[nH]cc43)cc2OC)c(C(F)(F)F)c1 (stereo not shown) [Example 42, methyl 4-[(2-methoxy-4-{6-oxo-2H,4H,5H,6H,7H-pyrazolo[3,4-b]pyridin-4-yl}phenoxy)methyl]-3-(trifluoromethyl)benzoate] |  | ≥ 8
26 | COc1cc(-c2cc(=O)[nH]c3n[nH]cc23)ccc1OCc1ccncc1C(F)(F)F [Example 172, 4-(3-methoxy-4-{[3-(trifluoromethyl)pyridin-4-yl]methoxy}phenyl)-2H,6H, 7H-pyrazolo[3,4-b]pyridin-6-one] | 0.1 to 1 | 
27 | CCCOC(=O)c1ccccc1COc1ccc(C2CC(=O)Nc3n[nH]cc32)cc1OC (stereo not shown) [Example 125, propyl 2-(2-methoxy-4-{6-oxo-2H,4H,5H,6H,7H-pyrazolo[3,4-b]pyridin-4-yl}phenoxymethyl)benzoate] | 0.1 to 1 | 
28 | O=C1CC(c2ccc(OCc3ccccc3Cl)cc2)c2c[nH]nc2N1 (stereo not shown) [Example 60, 4-{4-[(2-chlorophenyl)methoxy]phenyl}-2H,4H,5H,6H,7H-pyrazolo[3,4-b]pyridin-6-one] | 0.1 to 1 | 
29 | COc1cc(C2CC(=O)Nc3n[nH]cc32)ccc1OCc1cccc2c1OCCCO2 (stereo not shown) [Example 51, 4-{4-[(3,4-dihydro-2H-1,5-benzodioxepin-6-yl)methoxy]-3-methoxyphenyl}-2H,4H,5H, 6H, 7H-pyrazolo[3,4-b]pyridin-6-one] | 0.1 to 1 | 
30 | O=C1CC(c2ccc(OCc3ccccc3Br)cc2)c2c[nH]nc2N1 (stereo not shown) [Example 58, 4-{4-[(2-bromophenyl)methoxy]phenyl}-2H,4H,5H,6H,7H-pyrazolo[3,4-b]pyridin-6-one] | 0.1 to 1 | 
31 | COc1cc(C2CC(=O)Nc3n[nH]cc32)ccc1OCc1ccc(C(C)=O)cc1C(F)(F)F (stereo not shown) [Example 41, 4-(4-{[4-acetyl-2-(trifluoromethyl)phenyl]methoxy}-3-methoxyphenyl)-2H,4H,5H,6H, 7H-pyrazolo[3,4-b]pyridin-6-one] |  | ≥ 8
